Measurements published in article PMC10180054, “Design, Synthesis and Biological Evaluation of Novel Pleuromutilin Derivatives Containing 6-Chloro-1-R-1H-pyrazolo[3,4-d]pyrimidine-4-amino Side Chain” (Molecules, 2023).
≈ marks a conversion by molar mass, not a printed value.

Columns and labels:
MRSA ATCC 43300 [1] = assay: Constant concentration time–kill curves; format: cell-based, Staphylococcus aureus; conditions: for type of bactericidal kinetics: time–kill curves, 1 to 32 × MIC
Experimental: Time–kill kinetic assays were performed, which were used to investigate the in vitro bactericidal kinetic effect of compounds 12c, 19c, 22c and tiamulin.
Time–kill curve assays were established with the MIC value to investigate the antibacterial effect of constant drug concentration on MRSA. […] MRSA ATCC 43300 was incubated in MH broth at 37 °C for 4.5 h and diluted to 1 × 10^6 CFU/mL in MH broth. The saline control group was subjected to the same schedule but 0.9% saline water was added instead of the test compound. All the samples were incubated in an oscillating thermostatic at 37 °C, and then 100 μL of the mixture was extracted to 900 μL of sterile saline (0.9%) at 0, 3, 6, 9, 12 and 24 h, respectively. Samples were serially diluted 10-fold in sterile saline (0.9%) and inoculated onto agar plates. The colonies were counted after incubation at 37 °C for 24 h. Three independent experiments were performed according to our previous work. Time–kill curves were constructed by plotting the log10 CFU per millilitre versus time, and the change in bacterial concentration was determined.

MRSA ATCC 43300 [2] = assay: MIC/MBC by broth dilution (CLSI); format: cell-based, Staphylococcus aureus; conditions: for MBC / MIC: Staphylococcus aureus; for MBC: MRSA ATCC 43300, 99.9% of the bacteria killed; for MIC: MRSA ATCC 43300, broth dilution, 24 h, 37 °C, read-out: MIC
Experimental: (§1) The in vitro antimicrobial activity of the pleuromutilin derivatives was assessed against MRSA ATCC 43300, S. aureus ATCC 29213, S. aureus 144 and S. aureus AD3 according to the Clinical and Laboratory Standards Institute (CLSI). Tiamulin was used as a positive control drug. The results were summarized as the minimum inhibitory concentration (MIC) and the minimum bactericidal concentration (MBC) in Table 1 and Table 2. In addition, MIC results for the pleuromutilin derivatives against four Gram-negative bacteria are supplied in Tables S2 and S3.
(§2) The MIC and MBC values of the synthesized novel pleuromutilin derivatives against MRSA ATCC 43300, S. aureus ATCC 29213, S. aureus 144 and S. aureus AD3 were measured. Tiamulin was used as a positive control drug. The MIC and MBC values were manipulated by broth dilution according to the Clinical and Laboratory Standards (CLSI). Each compound to be measured was dissolved in a solution of 95% deionized water, 2.5% dimethyl sulfoxide (DMSO) and 2.5% Tween-80 with a concentration of 1280 µg/mL. Subsequently, serial twofold dilutions were made in a concentration range from 64 µg/mL to 0.0625 µg/mL. The working bacterial suspension was inoculated into each well, which provided the final inoculum density of 5 × 10^5 CFU/mL. Three parallel experiments were performed for each compound.
(§3) Overall, 25 µL of the bacterial solution from the wells with no obvious bacterial growth was inoculated on MH agar plates. Then, the inoculated MH agar plates were further cultured at 37 °C for 24 h.

S. aureus ATCC 29213 = assay: MIC/MBC by broth dilution (CLSI); format: cell-based; conditions: Staphylococcus aureus, ATCC29213; for MBC: S. aureus ATCC 29213; for MIC: S. aureus ATCC 29213, broth dilution, 24 h, 37 °C
Experimental: as §1, §2, §3

S. aureus AD3 = assay: MIC/MBC by broth dilution (CLSI); format: cell-based; conditions: Staphylococcus aureus; S. aureus AD3 (clinical strain)
Experimental: as §1, §2, §3

S. aureus 144 = assay: MIC/MBC by broth dilution (CLSI); format: cell-based; conditions: Staphylococcus aureus; S. aureus 144 (clinical strain)
Experimental: as §1, §2, §3

MRSA ATCC 43300 [3] = assay: Neutropenic murine thigh infection model; format: in vivo; conditions: neutropenic mice, 20 mg/kg, 24 h after dosing, n = 6/group
Experimental: Therefore, the in vivo efficacy of compounds 12c and 22c were assessed using the murine neutropenic thigh infection model. Mice groups treated with saline and tiamulin were chosen as the negative and positive controls.
Model experiments of neutropenic mouse thigh infection were manipulated as described in the literature. Female, six-week-old, specific-pathogen-free mice weighing approximately 23~26 g were used throughout the study. Mice were rendered neutropenic by injection of cyclophosphamide (Mead Johnson Pharmaceuticals, Evansville, IN) on day 4 (150 mg/kg) and day 1 (100 mg/kg) before the experiment. The neutrophil numbers in mice blood should be <0.1 × 10^9/L [34]. In total, 0.1 mL of MH broth of MRSA (10^7 CFU/mL) was inoculated into each thigh of the neutropenic mice. Mice were divided into 4 groups (6 mice per group), including control (sterile saline), compounds 12c, 22c and tiamulin groups. After 3 h post-infection, the corresponding drugs were injected into each mouse’s thigh. Mice were euthanized following intravenous injection for 24 h. Thigh tissue of each mouse was removed, collected, weighed and homogenized in 3 mL of ice sterile saline. Six ten-fold serial dilutions were performed and 25 μL of the bacterial solution from each tube was plated on MH agar plates. The resulting colonies were counted after 24 h incubation at 37 °C. The protocol for this study was reviewed and approved by the Institutional Animal Care and Use Committee of the South China Agricultural University.

MRSA ATCC 43300 [4] = assay: Post-antibiotic effect (PAE); format: cell-based, Staphylococcus aureus
Experimental: PAE has been considered as pharmacodynamic assistance which provides a reference for the rational formulation of dosing regimen. PAE refers to the temporary suppression of bacterial growth following transient antibiotic treatment. PAE assays were conducted for compounds 12c and 22c.
PAE is calculated from growth curves on the difference in time required for the number (1 log10 CFU/mL) of drug-exposed and unexposed microbes. […] The PAE values of compounds 12c and 22c increased with increasing incubation time.
PAE of compounds 12c and 22c on MRSA ATCC 43300 was determined using MH broth according to our previous work. The final concentration of MRSA was 1 × 10^6 CFU/mL by dilution with MH broth. Compounds 12c, 22c and tiamulin were supplemented in the suspension at a final concentration of 2 × MIC and 4 × MIC, respectively. The negative control group contained untreated MRSA bacterial cells. The test tubes were incubated with a 37 °C constant temperature vibration incubator for 1 and 2 h. After incubation, the test compound was removed from the sample by diluting 1000-fold with the preheated MH broth. Next, 100 μL of suspension from each culture was 10-fold diluted in sterile saline and inoculated on MH agar plates at 0, 2, 4, 6 and 8 h after inoculation. The number of colonies was calculated after incubation at 37 °C for 24 h. The experiments were performed in triplicate.

Row | Structure (SMILES) | melting point [°C] | MRSA killed in time–kill assay (MRSA ATCC 43300 [1]; 2 × MIC, 24 h incubation) [%] | reduction of MRSA in time–kill assay (MRSA ATCC 43300 [1]; 2 × MIC, 24 h incubation) [log10 CFU/mL] | reduction of MRSA in time–kill assay (MRSA ATCC 43300 [1]; 4 × MIC) [log10 CFU/mL] | type of bactericidal kinetics (MRSA ATCC 43300 [1]) | MBC (MRSA ATCC 43300 [2]) [µg/mL] | MIC (MRSA ATCC 43300 [2]) [µg/mL] | MBC/MIC ratio (MRSA ATCC 43300 [2]; against MRSA) | MBC (S. aureus ATCC 29213) [µg/mL] | MIC (S. aureus ATCC 29213) [µg/mL] | MBC (S. aureus AD3) [µg/mL] | MIC (S. aureus AD3) [µg/mL] | MBC (S. aureus 144) [µg/mL] | MIC (S. aureus 144) [µg/mL] | reduction of MRSA load in thigh vs growth control (MRSA ATCC 43300 [3]) [log10 CFU/mL] | PAE (MRSA ATCC 43300 [4]; 2 × MIC, exposure for 1 h) [h] | PAE (MRSA ATCC 43300 [4]; 2 × MIC, exposure for 2 h) [h] | PAE (MRSA ATCC 43300 [4]; 4 × MIC, exposure for 1 h) [h] | PAE (MRSA ATCC 43300 [4]; 4 × MIC, exposure for 2 h) [h]
1 | C=C[C@]1(C)C[C@@H](OC(=O)CSc2ccc(Nc3nc(Cl)nc4c3cnn4-c3ccc(F)cc3)cc2)[C@]2(C)[C@H](C)CC[C@]3(CCC(=O)[C@H]32)[C@@H](C)[C@@H]1O [Compound 19c, 22-[4-(6-Chloro-1-(4-fluorophenyl)-1H-pyrazolo[3,4-d]pyrimidine-4-yl)amino-Phenylsulfanyl]-22-deoxypleuromutilin] | 141 to 144 | 99.9 | −3.57 | −5.16 | time-dependent | 0.5 (≈ 0.683 µM) | 0.25 (≈ 0.341 µM) | ≤ 2 | 0.5 (≈ 0.683 µM) | 0.25 (≈ 0.341 µM) | 1 (≈ 1.37 µM) | 0.25 (≈ 0.341 µM) | 2 (≈ 2.73 µM) | 1 (≈ 1.37 µM) | – | – | – | – | –
2 | C=C[C@]1(C)C[C@@H](OC(=O)CNc2nc(Cl)nc3c2cnn3-c2cccc([N+](=O)[O-])c2)[C@]2(C)[C@H](C)CC[C@]3(CCC(=O)[C@H]32)[C@@H](C)[C@@H]1O [Compound 27b, 22-[(6-Chloro-1-(3-nitrophenyl)-1H-pyrazolo[3,4-d]pyrimidine-4-yl)amino]-22-deoxypleuromutilin] | 131 to 135 | – | – | – | – | – | > 64 | – | – | > 64 | – | > 64 | – | > 64 | – | – | – | – | –
3 | C=C[C@]1(C)C[C@@H](OC(=O)CSc2ccc(Nc3nc(Cl)nc4c3cnn4-c3cccc([N+](=O)[O-])c3)cc2)[C@]2(C)[C@H](C)CC[C@]3(CCC(=O)[C@H]32)[C@@H](C)[C@@H]1O [Compound 27c, 22-[4-(6-Chloro-1-(3-nitrophenyl)-1H-pyrazolo[3,4-d]pyrimidine-4-yl)amino-Phenylsulfanyl]-22-deoxypleuromutilin] | 137 to 139 | – | – | – | – | – | > 64 | – | – | > 64 | – | > 64 | – | > 64 | – | – | – | – | –
4 | C=C[C@]1(C)C[C@@H](OC(=O)CNc2nc(Cl)nc3c2cnn3-c2ccc3ccccc3c2)[C@]2(C)[C@H](C)CC[C@]3(CCC(=O)[C@H]32)[C@@H](C)[C@@H]1O [Compound 28b, 22-[(6-Chloro-1-(naphthalen-2-yl)-1H-pyrazolo[3,4-d]pyrimidine-4-yl)amino]-22-deoxypleuromutilin] | 123 to 125 | – | – | – | – | > 64 | 32 (≈ 48.8 µM) | – | > 64 | 32 (≈ 48.8 µM) | > 64 | 32 (≈ 48.8 µM) | > 64 | 32 (≈ 48.8 µM) | – | – | – | – | –
5 | C=C[C@]1(C)C[C@@H](OC(=O)CSc2ccc(Nc3nc(Cl)nc4c3cnn4-c3ccc4ccccc4c3)cc2)[C@]2(C)[C@H](C)CC[C@]3(CCC(=O)[C@H]32)[C@@H](C)[C@@H]1O [Compound 28c, 22-[4-(6-Chloro-1-(naphthalen-2-yl)-1H-pyrazolo[3,4-d]pyrimidine-4-yl-yl)amino-Phenylsulfanyl]-22-deoxypleuromutilin] | 115 to 118 | – | – | – | – | – | > 64 | – | – | > 64 | – | > 64 | – | > 64 | – | – | – | – | –
6 | C=C[C@]1(C)C[C@@H](OC(=O)CSCCN(CC)CC)[C@]2(C)[C@H](C)CC[C@]3(CCC(=O)[C@H]32)[C@@H](C)[C@@H]1O [Tiamulin, tiamulin, reference compound] | – | 99.9 | −3.78 | – | time-dependent | 1 (≈ 2.03 µM) | 0.5 (≈ 1.01 µM) | – | 1 (≈ 2.03 µM) | 1 (≈ 2.03 µM) | 2 (≈ 4.05 µM) | 1 (≈ 2.03 µM) | 2 (≈ 4.05 µM) | 1 (≈ 2.03 µM) | −0.56 | 0.27 | 1.23 | 0.42 | 1.31
